Experimental findings from ChEMBL document CHEMBL1127717, “Synthesis of new oligosaccharidyl-thio--cyclodextrins (CDS): a novel family of potent drug-targetting vectors” (1994) are described below.

As usually defined, the MIC is the lowest concentration found to suppress growth.

The nature of assay [1]: (§1) In vitro flocculation inhibitory ability was determined towards Yeast cell wall lectin (KbWCL). It is filed as functional, Saccharomyces cerevisiae.
Another assay deals with Saccharomyces cerevisiae. The description is as §1. It is filed as functional.
The mark [2] stands for this setting: Saccharomyces cerevisiae, read-out: MIC.

SMILES strings stand for the structures. ≈ marks a conversion by molar mass, not a printed value.

Regarding `O=C(CCCCCCCC(=O)N[C@@H]1O[C@@H](CO)[C@H](O)[C@H](O)[C@@H]1O)NC[C@@H]1O[C@@H]2O[C@H]3[C@H](O)[C@H](O)[C@@H](O[C@H]4[C@H](O)[C@H](O)[C@@H](O[C@H]5[C@H](O)[C@H](O)[C@@H](O[C@H]6[C@H](O)[C@H](O)[C@@H](O[C@H]7[C@H](O)[C@H](O)[C@@H](O[C@H]8[C@H](O)[C@H](O)[C@@H](O[C@H]1[C@H](O)[C@@H]2O)O[C@H]8CO)O[C@H]7CO)O[C@H]6CO)O[C@H]5CO)O[C@H]4CO)O[C@H]3CO`, the MIC in assay [1] (setting [2]) worked out at 1700 µM (≈ 2490 µg/mL).

Take `OC[C@H]1OC(O)[C@H](O)[C@@H](O)[C@@H]1O` (stereo not given in full): the MIC entry in the assay with Saccharomyces cerevisiae is “No inhibition”.

Consider `OCC1OC(SCCSCC2OC3OC4C(CSCCSC5OC(CO)C(O)C(O)C5O)OC(OC5C(CSCCSC6OC(CO)C(O)C(O)C6O)OC(OC6C(CSCCSC7OC(CO)C(O)C(O)C7O)OC(OC7C(CSCCSC8OC(CO)C(O)C(O)C8O)OC(OC8C(CSCCSC9OC(CO)C(O)C(O)C9O)OC(OC9C(CSCCSC%10OC(CO)C(O)C(O)C%10O)OC(OC2C(O)C3O)C(O)C9O)C(O)C8O)C(O)C7O)C(O)C6O)C(O)C5O)C(O)C4O)C(O)C(O)C1O` (stereo not given), for which, in assay [1] (setting [2]), the MIC came out at 410 µM (≈ 1150 µg/mL).

`O=[N+]([O-])c1ccc(O[C@H]2O[C@H](CO)[C@@H](O)[C@H](O)[C@H]2O)cc1` (stereo in doubt; form 2) displayed a minimal inhibitory concentration (MIC) in assay [1] of 830 µM (≈ 250 µg/mL).

Regarding `OC[C@@H]1O[C@@H](SC[C@@H]2O[C@@H]3O[C@H]4[C@H](O)[C@H](O)[C@@H](O[C@H]5[C@H](O)[C@H](O)[C@@H](O[C@H]6[C@H](O)[C@H](O)[C@@H](O[C@H]7[C@H](O)[C@H](O)[C@@H](O[C@H]8[C@H](O)[C@H](O)[C@@H](O[C@H]9[C@H](O)[C@H](O)[C@@H](O[C@H]2[C@H](O)[C@@H]3O)O[C@H]9CO)O[C@H]8CO)O[C@H]7CO)O[C@H]6CO)O[C@H]5CO)O[C@H]4CO)[C@@H](O)[C@@H](O)[C@@H]1O`, in assay [1] (setting [2]), the MIC was 3750 µM (≈ 4920 µg/mL).

As to `OC[C@H]1O[C@@H]2O[C@H]3[C@H](O)[C@@H](O)[C@@H](O[C@H]4[C@H](O)[C@@H](O)[C@@H](O[C@H]5[C@H](O)[C@@H](O)[C@@H](O[C@H]6[C@H](O)[C@@H](O)[C@@H](O[C@H]7[C@H](O)[C@@H](O)[C@@H](O[C@H]1[C@H](O)[C@H]2O)O[C@@H]7CO)O[C@@H]6CO)O[C@@H]5CO)O[C@@H]4CO)O[C@@H]3CO`, in the assay with Saccharomyces cerevisiae, the MIC result was “No inhibition”.

In the case of `[Na+].[O-]CC1OC(SCC2OC3OC4C(CSC5OC(CO)C(O)C(O)C5O)OC(OC5C(CSC6OC(CO)C(O)C(O)C6O)OC(OC6C(CSC7OC(CO)C(O)C(O)C7O)OC(OC7C(CSC8OC(CO)C(O)C(O)C8O)OC(OC8C(CSC9OC(CO)C(O)C(O)C9O)OC(OC9C(CSC%10OC(CO)C(O)C(O)C%10O)OC(OC2C(O)C3O)C(O)C9O)C(O)C8O)C(O)C7O)C(O)C6O)C(O)C5O)C(O)C4O)C(O)C(O)C1O` (stereo in doubt; 5), the MIC in assay [1] was 1660 µM.

Consider `OC1OC[C@@H](O)[C@@H](O)[C@@H]1O` (stereo not given in full), for which, in the assay with Saccharomyces cerevisiae, the MIC result is “No inhibition”.

For `O=C(NC[C@@H]1O[C@@H]2O[C@H]3[C@H](O)[C@H](O)[C@@H](O[C@H]4[C@H](O)[C@H](O)[C@@H](O[C@H]5[C@H](O)[C@H](O)[C@@H](O[C@H]6[C@H](O)[C@H](O)[C@@H](O[C@H]7[C@H](O)[C@H](O)[C@@H](O[C@H]8[C@H](O)[C@H](O)[C@@H](O[C@H]1[C@H](O)[C@@H]2O)O[C@H]8CO)O[C@H]7CO)O[C@H]6CO)O[C@H]5CO)O[C@H]4CO)O[C@H]3CO)C(CS[C@@H]1O[C@@H](CO)[C@H](O)[C@H](O)[C@@H]1O)CS[C@@H]1O[C@@H](CO)[C@H](O)[C@H](O)[C@@H]1O`, the MIC in assay [1] (setting [2]) stood at 2000 µM (≈ 3190 µg/mL).

For the compound `C[C@H]1OC(O)[C@H](O)[C@@H](O)[C@H]1O` (stereo not given in full), the MIC in assay [1] (setting [2]) came to 3500 µM (≈ 575 µg/mL).

As for `[Na+].[O-]CC1OC(SCC2OC3OC4C(CSC5OC(CO)C(O)C(O)C5O)OC(OC5C(CSC6OC(CO)C(O)C(O)C6O)OC(OC6C(CSC7OC(CO)C(O)C(O)C7O)OC(OC7C(CSC8OC(CO)C(O)C(O)C8O)OC(OC8C(CSC9OC(CO)C(O)C(O)C9O)OC(OC9C(CSC%10OC(CO)C(O)C(O)C%10O)OC(OC2C(O)C3O)C(O)C9O)C(O)C8O)C(O)C7O)C(O)C6O)C(O)C5O)C(O)C4O)C(O)C(O)C1O` (stereo in doubt; 6), the MIC in assay [1] turned out to be 700 µM.

Turning to `OC[C@H]1O[C@@H]2O[C@H]3[C@H](O)[C@@H](O)[C@@H](O[C@H]4[C@H](O)[C@@H](O)[C@@H](O[C@H]5[C@H](O)[C@@H](O)[C@@H](O[C@H]6[C@H](O)[C@@H](O)[C@@H](O[C@H]7[C@H](O)[C@@H](O)[C@@H](O[C@H]8[C@H](O)[C@@H](O)[C@@H](O[C@H]1[C@H](O)[C@H]2O)O[C@@H]8CO)O[C@@H]7CO)O[C@@H]6CO)O[C@@H]5CO)O[C@@H]4CO)O[C@@H]3CO`, the MIC entry with Saccharomyces cerevisiae was “No inhibition”.

Regarding `OC[C@H]1O[C@H](OC[C@H]2O[C@H](O[C@]3(CO)O[C@H](CO)[C@@H](O)[C@@H]3O)[C@H](O)[C@@H](O)[C@@H]2O)[C@H](O)[C@@H](O)[C@H]1O` [RAFFINOSE], in assay [1] (setting [2]), the MIC is 1200 µM (≈ 605 µg/mL).

Take `OC[C@H]1O[C@H](OCC2O[C@@H](O)[C@H](O)[C@@H](O)[C@@H]2O)[C@H](O)[C@@H](O)[C@H]1O` (stereo not given in full) [MELIBIOSE]: the minimal inhibitory concentration (MIC) in assay [1] (setting [2]) stood at 600 µM (≈ 205 µg/mL).

`O=[N+]([O-])c1ccc(O[C@H]2O[C@H](CO)[C@@H](O)[C@H](O)[C@H]2O)cc1` (stereo in doubt; form 1): the MIC in assay [1] was determined as 400 µM (≈ 121 µg/mL).
